From patent US11780840B2 (Incyte Corporation, priority 2020, dated 2023)
pIC50: −log10 of the molar value.

Experiments:
[1] = biological target: T1, catalytic domain (JH1, amino acids 826-1132) of human JAK2 (Homo sapiens, UniProt O60674); test: JAK2 LanthaScreen JH1 Binding Assay; details: JAK2 JH1 (1.5 nM), 50 nM fluorescent JAK2-JH1 tracer, 2 hours at 25° C.; read-out: JH1 BIND
T1 construct: catalytic domain (JH1, amino acids 826-1132) of human JAK2; FLAG (N); purchased Carna Biosciences 08-445-20N; host or cells: baculovirus expression system
Procedure, shortened: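 TR-FRET tracer-displacement format: compound IC50 from four-parameter curves after 2 h at 25° C. Reaction held 1.5 nM biotinylated, FLAG-tagged JH1 (aa 826-1132), 50 nM tracer, 0.5 nM Streptavidin-Tb, pH 7.5 Tris buffer; 2 mM ATP set nonspecific background.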

[2] = biological target: T2, pseudo-kinase domain (JH2, amino-acids 536-812 with 3 surface mutations W659A, W777A, F794H) of human V617F mutant JAK2 (Homo sapiens, UniProt O60674, F794H/V617F/W659A/W777A); test: JAK2 LanthaScreen JH2-V617F Binding Assay; details: JAK2 JH2-V617F (0.26 nM), 50 nM Fluorescent JAK2-JH2 Tracer, 1 hour at 25° C.; read-out: JH2 BIND V617F
T2 construct: pseudo-kinase domain (JH2, amino-acids 536-812 with 3 surface mutations W659A, W777A, F794H); His (C); Avi (biotinylated) (C); purchased BPS Bioscience 79498; host or cells: baculovirus expression system
Procedure, shortened: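 TR-FRET tracer displacement: 0.26 nM protein, 50 nM tracer, 0.25 nM SA-Tb, 50 mM Tris pH 7.5, 10 mM MgCl2, 5 mM DTT; 1 h, 25° C. NSB = 2 mM ATP. IC50, 4-parameter curve.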

[3] = biological target: T3, pseudo-kinase domain (JH2, amino-acids 536-812 with 3 surface mutations W659A, W777A, F794H) of human Wild Type JAK2 (Homo sapiens, UniProt O60674, F794H/W659A/W777A); test: JAK2 LanthaScreen JH2-WT Binding Assay; details: JAK2 JH2-WT (0.145 nM), 50 nM Fluorescent JAK2-JH2 Tracer, 1 hour at 25° C.; read-out: JH2 BIND WT
T3 construct: pseudo-kinase domain (JH2, amino-acids 536-812 with 3 surface mutations W659A, W777A, F794H); His (C); Avi (biotinylated) (C); purchased BPS Bioscience 79463; host or cells: baculovirus expression system
Procedure, shortened: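 Compounds, serially diluted, were mixed with 0.145 nM JH2 domain, 50 nM tracer and 0.25 nM streptavidin-Tb cryptate, then incubated 1 hour at 25° C before LanthaScreen reading. Wells containing 2 mM ATP defined non-specific binding. Four-parameter dose-response curves gave IC50.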

T2 sequence (O60674 536-812 V617F/W659A/W777A/F794H): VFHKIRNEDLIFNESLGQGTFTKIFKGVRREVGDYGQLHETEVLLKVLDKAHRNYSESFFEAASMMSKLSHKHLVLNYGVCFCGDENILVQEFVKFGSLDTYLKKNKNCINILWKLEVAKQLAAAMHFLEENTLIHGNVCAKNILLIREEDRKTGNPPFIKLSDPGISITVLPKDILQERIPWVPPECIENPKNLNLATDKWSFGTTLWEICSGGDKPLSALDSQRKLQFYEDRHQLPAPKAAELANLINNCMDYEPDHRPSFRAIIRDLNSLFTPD
T1 sequence (O60674 826-1132): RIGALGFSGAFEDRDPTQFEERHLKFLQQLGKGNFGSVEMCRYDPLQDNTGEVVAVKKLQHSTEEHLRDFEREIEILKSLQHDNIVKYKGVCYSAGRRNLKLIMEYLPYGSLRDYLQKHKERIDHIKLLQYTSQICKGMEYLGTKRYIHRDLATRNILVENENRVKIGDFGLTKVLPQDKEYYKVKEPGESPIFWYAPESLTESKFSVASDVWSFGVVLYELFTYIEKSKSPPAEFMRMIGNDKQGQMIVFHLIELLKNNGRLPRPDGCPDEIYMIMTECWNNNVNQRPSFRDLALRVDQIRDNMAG
T3 sequence (O60674 536-812 W659A/W777A/F794H): as the sequence (O60674 536-812 V617F/W659A/W777A/F794H) above, with F82V counted along it

Compound | pIC50 [1] | pIC50 [2] | pIC50 [3]
Cn1ncc2cc(-c3c(-c4ccc(Oc5cccnc5)nc4)[nH]c4ncc5c(c34)n(C3CCCC3)c(=O)n5C)ccc21 [Example 67, 1-Cyclopentyl-3-methyl-8-(1-methyl-1H-indazol-5-yl)-7-(6-(pyridin-3-yloxy)pyridin-3-yl)-3,6-dihydroimidazo[4,5-d]pyrrolo[2,3-b]pyridin-2(1H)-one] | < 6.00 | 7.00 to 8.00 | 7.00 to 8.00
Cn1ncc2cc(-c3c(C4CC4)[nH]c4ncc5c(c34)n(C3CCCC3)c(=O)n5C)ccc21 [Example 68, 1-Cyclopentyl-7-cyclopropyl-3-methyl-8-(1-methyl-1H-indazol-5-yl)-3,6-dihydroimidazo[4,5-d]pyrrolo[2,3-b]pyridin-2(1H)-one] | 6.00 to 6.30 | ≥ 8.00 | ≥ 8.00
Cn1ncc2cc(-c3c(C4=CCCCC4)[nH]c4ncc5c(c34)n(C3CCCC3)c(=O)n5C)ccc21 [Example 69, 7-(Cyclohex-1-en-1-yl)-1-cyclopentyl-3-methyl-8-(1-methyl-1H-indazol-5-yl)-3,6-dihydroimidazo[4,5-d]pyrrolo[2,3-b]pyridin-2(1H)-one] | < 6.00 | ≥ 8.00 | ≥ 8.00
Cn1ncc2cc(-c3c(CCO)[nH]c4ncc5c(c34)n(C3CCCC3)c(=O)n5C)ccc21 [Example 70, 1-Cyclopentyl-7-(2-hydroxyethyl)-3-methyl-8-(1-methyl-1H-indazol-5-yl)-3,6-dihydroimidazo[4,5-d]pyrrolo[2,3-b]pyridin-2(1H)-one] | < 6.00 | 6.30 to 7.00 | 6.30 to 7.00
Cn1c(=O)n(C2CCCC2)c2c3c(-c4cc5cnccc5s4)c(C4CC4)[nH]c3ncc21 [Example 71, 1-Cyclopentyl-7-cyclopropyl-3-methyl-8-(thieno[3,2-c]pyridin-2-yl)-3,6-dihydroimidazo[4,5-d]pyrrolo[2,3-b]pyridin-2(1H)-one] | 6.00 to 6.30 | 7.00 to 8.00 | ≥ 8.00
Cn1ncc2cc(-c3c(C4CC4C#N)[nH]c4ncc5c(c34)n(C3CCCC3)c(=O)n5C)ccc21 (stereo not drawn) [Example 72, 2-(1-Cyclopentyl-3-methyl-8-(1-methyl-1H-indazol-5-yl)-2-oxo-1,2,3,6-tetrahydroimidazo [4,5-d]pyrrolo[2,3-b]pyridin-7-yl)cyclopropane-1-carbonitrile] | 6.00 to 6.30 | 7.00 to 8.00 | ≥ 8.00
COCC(=O)NC1CCC(n2c(=O)n(C)c3cnc4[nH]c(-c5cnn(CC(C)(C)O)c5)c(-c5ccc6c(cnn6C)c5)c4c32)CC1 (stereo not drawn) [Example 73, N-(4-(7-(1-(2-Hydroxy-2-methylpropyl)-1H-pyrazol-4-yl)-3-methyl-8-(1-methyl-1H-indazol-5-yl)-2-oxo-3,6-dihydroimidazo[4,5-d]pyrrolo[2,3-b]pyridin-1(2H)-yl)cyclohexyl)-2-methoxyacetamide] | < 6.00 | ≥ 8.00 | ≥ 8.00
CC(=O)NC1CCC(n2c(=O)n(C)c3cnc4[nH]c(-c5cnn(CC(C)(C)O)c5)c(-c5ccc6c(cnn6C)c5)c4c32)CC1 (stereo not drawn) [Example 74, N-(4-(7-(1-(2-Hydroxy-2-methylpropyl)-1H-pyrazol-4-yl)-3-methyl-8-(1-methyl-1H-indazol-5-yl)-2-oxo-3,6-dihydroimidazo[4,5-d]pyrrolo[2,3-b]pyridin-1(2H)-yl)cyclohexyl) acetamide] | 6.00 to 6.30 | ≥ 8.00 | ≥ 8.00
CC(C)n1c(=O)n(C)c2cnc3[nH]c(-c4cnn(CC(C)(C)O)c4)c(-c4cc5cnccc5s4)c3c21 [Example 75, 7-(1-(2-Hydroxy-2-methylpropyl)-1H-pyrazol-4-yl)-1-isopropyl-3-methyl-8-(thieno[3,2-c]pyridin-2-yl)-3,6-dihydroimidazo[4,5-d]pyrrolo[2,3-b]pyridin-2(1H)-one] | 6.00 to 6.30 | ≥ 8.00 | ≥ 8.00
CC(C)n1c(=O)n(C)c2cnc3[nH]c(-c4cnn(CC(C)(C)O)c4)c(-c4cnc(N5CCOCC5)s4)c3c21 [Example 76, 7-(1-(2-Hydroxy-2-methylpropyl)-1H-pyrazol-4-yl)-1-isopropyl-3-methyl-8-(2-morpholinothiazol-5-yl)-3,6-dihydroimidazo[4,5-d]pyrrolo[2,3-b]pyridin-2(1H)-one] | < 6.00 | 7.00 to 8.00 | 7.00 to 8.00
CC(C)n1c(=O)n(C)c2cnc3[nH]c(-c4cnn(CC(C)(C)O)c4)c(-c4ccc5cnccc5c4)c3c21 [Example 77, 7-(1-(2-Hydroxy-2-methylpropyl)-1H-pyrazol-4-yl)-1-isopropyl-8-(isoquinolin-6-yl)-3-methyl-3,6-dihydroimidazo[4,5-d]pyrrolo[2,3-b]pyridin-2(1H)-one] | < 6.00 | 7.00 to 8.00 | 7.00 to 8.00
CC(C)n1c(=O)n(C)c2cnc3[nH]c(-c4cnn(CC(C)(C)O)c4)c(-c4ccc5ncsc5c4)c3c21 [Example 78, 8-(Benzo[d]thiazol-6-yl)-7-(1-(2-hydroxy-2-methylpropyl)-1H-pyrazol-4-yl)-1-isopropyl-3-methyl-3,6-dihydroimidazo[4,5-d]pyrrolo[2,3-b]pyridin-2(1H)-one] | < 6.00 | 7.00 to 8.00 | 7.00 to 8.00
CC(C)n1c(=O)n(C)c2cnc3[nH]c(-c4cnn(CC(C)(C)O)c4)c(-c4ccc5c(c4)CCCO5)c3c21 [Example 79, 8-(Chroman-6-yl)-7-(1-(2-hydroxy-2-methylpropyl)-1H-pyrazol-4-yl)-1-isopropyl-3-methyl-3,6-dihydroimidazo[4,5-d]pyrrolo[2,3-b]pyridin-2(1H)-one] | 6.30 to 7.00 | 7.00 to 8.00 | ≥ 8.00
CC(C)n1c(=O)n(C)c2cnc3[nH]c(-c4cnn(CC(C)(C)O)c4)c(-c4cc5cnc(N6CCNCC6)cc5s4)c3c21 [Example 80, 7-(1-(2-Hydroxy-2-methylpropyl)-1H-pyrazol-4-yl)-1-isopropyl-3-methyl-8-(6-(piperazin-1-yl)thieno[3,2-c]pyridin-2-yl)-3,6-dihydroimidazo[4,5-d]pyrrolo[2,3-b]pyridin-2(1H)-one] | 6.30 to 7.00 | ≥ 8.00 | ≥ 8.00
CC(=O)N1CCN(c2cc3sc(-c4c(-c5cnn(CC(C)(C)O)c5)[nH]c5ncc6c(c45)n(C(C)C)c(=O)n6C)cc3cn2)CC1 [Example 81, 8-(6-(4-Acetylpiperazin-1-yl)thieno[3,2-c]pyridin-2-yl)-7-(1-(2-hydroxy-2-methylpropyl)-1H-pyrazol-4-yl)-1-isopropyl-3-methyl-3,6-dihydroimidazo[4,5-d]pyrrolo[2,3-b]pyridin-2(1H)-one] | < 6.00 | 7.00 to 8.00 | ≥ 8.00
CC(C)n1c(=O)n(C)c2cnc3[nH]c(-c4cnn(CC(C)(C)O)c4)c(-c4cc5c(s4)CCNC5)c3c21 [Example 82, 7-(1-(2-Hydroxy-2-methylpropyl)-1H-pyrazol-4-yl)-1-isopropyl-3-methyl-8-(4,5,6,7-tetrahydrothieno[3,2-c]pyridin-2-yl)-3,6-dihydroimidazo[4,5-d]pyrrolo[2,3-b]pyridin-2(1H)-one] | < 6.00 | 6.00 to 6.30 | 6.30 to 7.00
CC(C)n1c(=O)n(C)c2cnc3[nH]c(-c4cnn(CC(C)(C)O)c4)c(-c4cc5c(s4)CCN(S(C)(=O)=O)C5)c3c21 [Example 83, 7-(1-(2-Hydroxy-2-methylpropyl)-1H-pyrazol-4-yl)-1-isopropyl-3-methyl-8-(5-(methylsulfonyl)-4,5,6,7-tetrahydrothieno[3,2-c]pyridin-2-yl)-3,6-dihydroimidazo[4,5-d]pyrrolo[2,3-b]pyridin-2(1H)-one] | < 6.00 | 7.00 to 8.00 | ≥ 8.00
Cc1cn2cc(-c3c(-c4cnn(CC(C)(C)O)c4)[nH]c4ncc5c(c34)n(C(C)C)c(=O)n5C)cc2cn1 [Example 84, 7-(1-(2-Hydroxy-2-methylpropyl)-1H-pyrazol-4-yl)-1-isopropyl-3-methyl-8-(3-methylpyrrolo[1,2-a]pyrazin-7-yl)-3,6-dihydroimidazo[4,5-d]pyrrolo[2,3-b]pyridin-2(1H)-one] | < 6.00 | ≥ 8.00 | ≥ 8.00
